“Also recorded” adds a separate entry of the source. Each block holds one compound with its values, some of them ahead of it.
Experiments:
Format in all cases: cell-based
GFP-GR = target: T1, GFP-GR (Rattus norvegicus, UniProt P06536, C656G/D98G); experiment: GFP-GR cytoplasm-to-nucleus translocation assay (3617 cells); settings: hormones 100 nM or known concentrations, water samples 100× unless specified, 30 min
T1 construct: expressed in transfected cells; host or cells: 3617 cells (derivative of the 3134 mouse mammary adenocarcinoma line), tetracycline-repressible promoter
Procedure: (§1) Prior to imaging, cells were grown overnight on 22-mm^2 coverslips in DMEM medium containing 10% charcoal stripped serum (Hyclone, Logan, Utah) without tetracycline (to allow the expression of the GFP-GR or GFP-AR, respectively) at a density of 2×10^5 per 6-well plate. For the automated experiments conducted in 96 or 384 well plates, cell density was 10, 000 or 2,500 cells per well, respectively. Cells were treated with vehicle control, hormones (100 nM) or water samples for 30 min at 37° C. at a final concentration of 100×for water samples (unless otherwise specified). Additional negative controls contained samples that tested the activity of the POCIS membranes themselves.
(§2) Upon treatment, cells were fixed with 4% paraformaldehyde in PBS for 15 minutes and washed three times with PBS. Cells on the 22-mm^2 coverslips were mounted in […]® mounting media with DAPI (Vector Laboratories, Inc.) and examined on a Leica DMRA microscope with Leica 100× 1.3-N.A. oil immersion objective. Images were acquired in green (GFP-GR and GFP-AR) and UV (DAPI) channel with SenSys (Photometrics) camera with KAF1400 chip configured to collect 0.067-μm-diameter pixels. For the automated experiments conducted in 96 or 384 well plates, cells were stained with DRAQ5 (BioStatus Limited) at a dilution of 1:5000 for 15 minutes and after three final washes with PBS were imaged either immediately on the Perkin Elmer Opera Image Screening System or kept in PBS at 4° C. for later imaging.
(§3) A Perkin Elmer Opera Image Screening System was used for fully automated collection of fluorescence images of cells. This system employed a 40×water immersion objective lens, laser illuminated Nipkow disk, and cooled CCD cameras to digitally capture high resolution confocal fluorescence micrographs (300 nm pixel size with 2×2 camera pixel binning). […] The algorithm also measured the mean GFP-GR or GFP-AR intensity in both compartments, and translocation was calculated as a ratio of these intensities. […]

eGFP-ratMR = target: T2, eGFP-ratMR (Rattus norvegicus, UniProt P22199, A771G/D487G); experiment: eGFP-ratMR translocation in mammalian cells
T2 construct: expressed in transfected cells
Description: (§4) Using molecular cloning methods essentially similar to those employed in Example 1, the following additional traceable fusion proteins have been constructed: an aryl hydrocarbon (e.g., dioxin) sensitive fusion protein, pRevTRE-GFP-mAhR (SEQ ID NOs: 9/10); a mineralocorticoid (e.g., aldosterone) sensitive fusion protein, eGFP-ratMR (SEQ ID NOs: 11/12); and a progestin-sensitive fusion protein, eGFP-hPRB (SEQ ID NOs: 13/14).

pRevTRE-GFP-mAhR = target: T3, pRevTRE-GFP-mAhR (Mus musculus, UniProt P30561); experiment: pRevTRE-GFP-mAhR translocation in mammalian cells
T3 construct: expressed in transfected cells
Description: as §4

GFP-AR = target: T4, GFP-AR (Homo sapiens, UniProt P10275); experiment: GFP-AR cytoplasm-to-nucleus translocation assay (3108 cells); settings: hormones 100 nM or known concentrations, water samples 100× unless specified, 30 min
T4 construct: expressed in transfected cells; host or cells: 3108 cells (derivative of the 3134 mouse mammary adenocarcinoma line), tetracycline-repressible promoter
Procedure: as §1, §2, §3

GFP-PR-B (eGFP-hPRB) = target: T5, GFP-PR-B (eGFP-hPRB) (Homo sapiens, UniProt P06401); experiment: GFP-PR-B translocation in clonal cell lines; settings: clones 8122, 8124, 8127, 8130 (four of five tested)
T5 construct: Five mammalian clonal lines expressing the same traceable fusion protein, GFP-PR-B (eGFP-hPRB); expressed in transfected cells
Description: Five mammalian clonal lines expressing the same traceable fusion protein, GFP-PR-B (eGFP-hPRB; SEQ ID NO: 14) were contacted with the indicated levels of progesterone, then assayed essentially as in Example 1 for translocation of the fusion protein into the nucleus from the cytoplasm.

SMILES: C[C@]12C[C@H](O)[C@H]3[C@@H](CCC4=CC(=O)CC[C@@]43C)[C@@H]1CC[C@@H]2C(=O)CO [corticosterone]
- GFP-GR nuclear translocation (GFP-GR): translocates to the nucleus in a concentration-dependent manner; also recorded: GFP-GR translocation

- eGFP-ratMR translocation (eGFP-ratMR): exhibited the expected translocation
SMILES: C[C@]12CCC(=O)C=C1CC[C@@H]1[C@@H]2[C@@H](O)C[C@]2(C=O)[C@@H](C(=O)CO)CC[C@@H]12 [aldosterone]

SMILES: CCNc1nc(Cl)nc(NC(C)C)n1 [atrazine]
- GFP-GR nuclear translocation (GFP-GR): did not induce GFP-GR translocation

- pRevTRE-GFP-mAhR translocation (pRevTRE-GFP-mAhR): exhibited the expected translocation
SMILES: C1=COC=CO1 [dioxin]

SMILES: C[C@@]12CCC[C@H]1[C@@H]1CC(=O)C3=CC(=O)CC[C@]3(C)[C@H]1CC2 [Androst-4-en-3,6-dione]
- GFP-GR nuclear translocation (GFP-GR): did not induce GFP-GR translocation
- GFP-AR nuclear translocation (GFP-AR): induced GFP-tagged androgen receptor (GFP-AR) translocation
- GFP-AR nuclear translocation (GFP-AR; listed as androst-4-en-3,6-dione): translocated to the nucleus in concentration-dependent manner; also recorded: induces concentration-dependent translocation
- GFP-AR nuclear translocation (GFP-AR; listed as androst-4-ene-3,6-dione): GFP-AR nuclear translocation

SMILES: CC(=O)[C@H]1CC[C@H]2[C@@H]3CCC4=CC(=O)CC[C@]4(C)[C@H]3CC[C@]12C [progesterone]
- GFP-PR-B translocation (GFP-PR-B (eGFP-hPRB)): exhibited the expected translocation; also recorded: positive for translocation

Reference: US20150168416A1, “KITS FOR DETECTING AND MONITORING ENDOCRINE DISRUPTING CHEMICALS (EDCs)” (THE UNITED STATES OF AMERICA, as represented by the …, priority 2012, published 2015)
